Source: patent US9529005B2, “Modulating bacterial MAM polypeptides in pathogenic disease” (priority 2011, dated 2016)
≈ marks a conversion by molar mass, not a printed value. Read-outs that look alike come from different tables or passages of the source.

Experiments:
Test in all cases: Antimicrobial susceptibility testing (MIC), BD Phoenix Automated Microbiology System; as to interpretation of the result: key: R, resistant; I, intermediate; S, susceptible; R*: *As a rule, when ESBL is detected, an interpretation of susceptible or intermediate for penicillins, cephalosporins and aztreonam is reported as resistant
Assay type in all cases: cell-based
Escherichia coli = details: for MIC: Escherichia coli, read-out: minimal inhibiting concentration
Source text: (§1) The inventors performed antimicrobial susceptibility testing (AST) by determining the minimal inhibiting concentration (MIC) of a panel of antimicrobials on all twenty bacterial isolates using the BD Phoenix Automated Microbiology System (Table 3). Antimicrobial panels included several drugs from each of the four most commonly used classes of antimicrobials, aminoglycosides, β-lactams, carbapenems and fluoroquinolones. The panels also included antimicrobials from other classes, such as trimethoprim/sulfamethoxazole, but resistance to these was not considered in the classification of isolates as multidrug-resistant.

Klebsiella ssp. = details: for MIC: Klebsiella
Source text: as §1

Acinetobacter baumannii = details: for MIC: Acinetobacter baumannii
Source text: as §1

Pseudomonas aeruginosa = test system: Pseudomonas aeruginosa; as to interpretation of the result: key: R, resistant; I, intermediate; S, susceptible; R*: *As a rule, when ESBL is detected, an interpretation of susceptible or intermediate for penicillins, cephalosporins and aztreonam is reported as resistant
Source text: as §1

[1] = Acinetobacter baumannii isolate 1
[2] = Acinetobacter baumannii isolate 2
[3] = Acinetobacter baumannii isolate 3
[4] = Acinetobacter baumannii isolate 4
[5] = Acinetobacter baumannii isolate 5
[6] = read-out: minimal inhibiting concentration, Acinetobacter baumannii isolate 1
[7] = read-out: minimal inhibiting concentration, Acinetobacter baumannii isolate 2
[8] = read-out: minimal inhibiting concentration, Acinetobacter baumannii isolate 3
[9] = read-out: minimal inhibiting concentration, Acinetobacter baumannii isolate 4
[10] = read-out: minimal inhibiting concentration, Acinetobacter baumannii isolate 5
[11] = Pseudomonas aeruginosa isolate 1
[12] = Pseudomonas aeruginosa isolate 2
[13] = Pseudomonas aeruginosa isolate 3
[14] = Pseudomonas aeruginosa isolate 4
[15] = Pseudomonas aeruginosa isolate 5

Compound	interpretation of the result (Escherichia coli; Escherichia coli isolate 1)	interpretation of the result (Escherichia coli; Escherichia coli isolate 2)	interpretation of the result (Escherichia coli; Escherichia coli isolate 3)	interpretation of the result (Escherichia coli; Escherichia coli isolate 4)	interpretation of the result (Escherichia coli; Escherichia coli isolate 5)	interpretation of the result (Klebsiella ssp.; Klebsiella ssp. isolate 2)	interpretation of the result (Klebsiella ssp.; Klebsiella ssp. isolate 3)	interpretation of the result (Klebsiella ssp.; Klebsiella ssp. isolate 4)	interpretation of the result (Acinetobacter baumannii; [1])	interpretation of the result (Acinetobacter baumannii; [2])	interpretation of the result (Acinetobacter baumannii; [3])	interpretation of the result (Acinetobacter baumannii; [4])	interpretation of the result (Acinetobacter baumannii; [5])	MIC (Acinetobacter baumannii; [6]) [µg/mL]	MIC (Acinetobacter baumannii; [7]) [µg/mL]	MIC (Acinetobacter baumannii; [8]) [µg/mL]	MIC (Acinetobacter baumannii; [9]) [µg/mL]	MIC (Acinetobacter baumannii; [10]) [µg/mL]	further results
O=C(O)c1cn(C2CC2)c2cc(N3CCNCC3)c(F)cc2c1=O [Cipro., Ciprofloxacin]	R	R	R	R	R														MIC (Escherichia coli; Escherichia coli isolate 1): > 2 µg/mL; MIC (Escherichia coli; Escherichia coli isolate 2): > 2 µg/mL; MIC (Escherichia coli; Escherichia coli isolate 3): > 2 µg/mL; MIC (Escherichia coli; Escherichia coli isolate 4): > 2 µg/mL; MIC (Escherichia coli; Escherichia coli isolate 5): > 2 µg/mL
C[C@@H](O)[C@H]1C(=O)N2C(C(=O)O)=C(S[C@@H]3CN[C@H](C(=O)Nc4cccc(C(=O)O)c4)C3)[C@H](C)[C@H]12 [Ert., Ertapenem]						S	S	S											susceptibility of isolates (Escherichia coli; all E. coli isolates): susceptible; MIC (Klebsiella ssp.; read-out: minimal inhibiting concentration, Klebsiella ssp. isolate 2): ≤ 0.5 µg/mL; MIC (Klebsiella ssp.; read-out: minimal inhibiting concentration, Klebsiella ssp. isolate 3): ≤ 0.5 µg/mL; MIC (Klebsiella ssp.; read-out: minimal inhibiting concentration, Klebsiella ssp. isolate 4): ≤ 0.5 µg/mL; susceptibility of isolates (Klebsiella ssp.; all Klebsiella ssp. isolates): susceptible
COc1c(N2CCNC(C)C2)c(F)cc2c(=O)c(C(=O)O)cn(C3CC3)c12 (stereo not drawn) [Gati., Gatifloxacin]									R	R	I	R	R	> 4	> 4	4 (≈ 10.7 µM)	> 4	> 4	
CCN1CCN(C(=O)N[C@@H](C(=O)N[C@@H]2C(=O)N3[C@@H]2SC(C)(C)[C@@H]3C(=O)O)c2ccccc2)C(=O)C1=O [Pip., Piperacillin]									R	R	R	R	R	> 64	> 64	> 64	> 64	> 64	
Amoxillin-Calvulanate [AmoxC.]						R	R	R	R	R	R	R	R						minimal inhibiting concentration (Acinetobacter baumannii; [1]): 16/8; minimal inhibiting concentration (Acinetobacter baumannii; [2]): 16/8; minimal inhibiting concentration (Acinetobacter baumannii; [3]): 16/8; minimal inhibiting concentration (Acinetobacter baumannii; [4]): 16/8; minimal inhibiting concentration (Acinetobacter baumannii; [5]): 16/8; interpretation of the result (Klebsiella ssp.; Klebsiella ssp. isolate 1): R; minimal inhibiting concentration (Klebsiella ssp.; Klebsiella ssp. isolate 1): 16/8; minimal inhibiting concentration (Klebsiella ssp.; Klebsiella ssp. isolate 2): 16/8; minimal inhibiting concentration (Klebsiella ssp.; Klebsiella ssp. isolate 3): 8/4; minimal inhibiting concentration (Klebsiella ssp.; Klebsiella ssp. isolate 4): 16/8; interpretation of the result (Klebsiella ssp.; Klebsiella ssp. isolate 5): R; minimal inhibiting concentration (Klebsiella ssp.; Klebsiella ssp. isolate 5): 16/8
Ampicillin-Sulbactam [AmpS.]	R	R	R	R	R														minimal inhibiting concentration (Escherichia coli; Escherichia coli isolate 1): 16/8; minimal inhibiting concentration (Escherichia coli; Escherichia coli isolate 2): 16/8; minimal inhibiting concentration (Escherichia coli; Escherichia coli isolate 3): 16/8; minimal inhibiting concentration (Escherichia coli; Escherichia coli isolate 4): 16/8; minimal inhibiting concentration (Escherichia coli; Escherichia coli isolate 5): 16/8; interpretation of the result (Pseudomonas aeruginosa; [11]): R; minimal inhibiting concentration (Pseudomonas aeruginosa; [11]): 16/8; interpretation of the result (Pseudomonas aeruginosa; [12]): R; minimal inhibiting concentration (Pseudomonas aeruginosa; [12]): 16/8; interpretation of the result (Pseudomonas aeruginosa; [13]): R; minimal inhibiting concentration (Pseudomonas aeruginosa; [13]): 16/8; interpretation of the result (Pseudomonas aeruginosa; [14]): R; minimal inhibiting concentration (Pseudomonas aeruginosa; [14]): 16/8; interpretation of the result (Pseudomonas aeruginosa; [15]): R; minimal inhibiting concentration (Pseudomonas aeruginosa; [15]): 16/8
